From patent publication US20080312223A1, “Thiazole And Isothiazole Derivatives That Modulate The Activity Of CDK, GSK And Aurora Kinases” (ASTEX THERAPEUTICS LIMITED, priority 2004, published 2008)
Where two headings read alike, the source gives them in different places.

What was measured:
[1] = test system: HCT-116 cell line; assay: Anti-proliferative activity, Alamar Blue assay; format: cell-based; conditions: Homo sapiens, read-out: IC50 against the HCT-116 cell line
Description: The anti-proliferative activities of compounds of the invention can be determined by measuring the ability of the compounds to inhibition of cell growth in a number of cell lines. Inhibition of cell growth is measured using the Alamar Blue assay (Nociari, M. M, Shalev, A., Benias, P., Russo, C. Journal of Immunological Methods 1998, 213, 157-167). The method is based on the ability of viable cells to reduce resazurin to its fluorescent product resorufin. For each proliferation assay cells are plated onto 96 well plates and allowed to recover for 16 hours prior to the addition of inhibitor compounds for a further 72 hours. At the end of the incubation period 10% (v/v) Alamar Blue is added and incubated for a further 6 hours prior to determination of fluorescent product at […]. In the case of the non-proliferating cell assay cells are maintained at confluence for 96 hour prior to the addition of inhibitor compounds for a further 72 hours. The number of viable cells is determined by Alamar Blue assay as before. In addition, any morphological changes are recorded. All cell lines can be obtained from ECACC (European Collection of cell Cultures).
In particular, compounds of the invention were tested against the HCT-116 cell line (ECACC Reference: 91091005) derived from human colon carcinoma.

[2] = target: T1, CDK1/CyclinB (Homo sapiens, UniProt P06493); assay: Activated CDK1/CyclinB kinase inhibitory activity assay; format: biochemical; conditions: Example 11, read-out: IC50 in the CDK2 assay (stated under the CDK1/CyclinB assay, Example 11)
T1 construct: purchased Upstate Discovery
Description: (§1) Activated CDK2/CyclinA (Brown et al, Nat. Cell Biol., 1, pp 438-443, 1999; Lowe, E. D., et al Biochemistry, 41, pp 15625-15634, 2002) is diluted to 125 pM in 2.5× strength assay buffer (50 mM MOPS pH 7.2, 62.5 mM β-glycerophosphate, 12.5 mM EDTA, 37.5 mM MgCl2, […], 2.5 mM DTT, 2.5 mM sodium orthovanadate, 0.25 mg/ml bovine serum albumin), and 10 μl mixed with 10 μl of histone substrate mix (60 μl bovine histone H1 (Upstate Biotechnology, 5 mg/ml), 940 μl H2O, 35 μCi γ^33P-ATP) and added to 96 well plates along with 5 μl of various dilutions of the test compound in DMSO (up to 2.5%). The reaction is allowed to proceed for 2 to 4 hours before being stopped with an excess of ortho-phosphoric acid (5 μl at 2%).
(§2) γ^33P-ATP which remains unincorporated into the histone H1 is separated from phosphorylated histone H1 on a Millipore MAPH filter plate. The wells of the MAPH plate are wetted with 0.5% orthophosphoric acid, and then the results of the reaction are filtered with a Millipore vacuum filtration unit through the wells. Following filtration, the residue is washed twice with 200 μl of 0.5% orthophosphoric acid. Once the filters have dried, 20 μl of Microscint 20 scintillant is added, and then counted on a Packard Topcount for 30 seconds. The % inhibition of the CDK2 activity is calculated and plotted in order to determine the concentration of test compound required to inhibit 50% of the CDK2 activity (IC50).
CDK1/CyclinB assay.is identical to the CDK2/CyclinA above except that CDK1/CyclinB (Upstate Discovery) is used and the enzyme is diluted to 6.25 nM.

[3] = target: Activated CDK2/CyclinA (Homo sapiens, UniProt P24941); assay: Activated CDK2/CyclinA kinase inhibitory activity assay; format: biochemical; conditions: Example 10
Description: as §1
as §2, with “The % inhibition of the CDK2 activity is calculated and plotted in order to determine the concentration of test compound required to inhibit 50% of the CDK2 activity (IC50).” left out

[4] = target: GSK3β (human) (Homo sapiens, UniProt P49841); assay: Inhibitory activity against Glycogen Synthase Kinase-3; format: biochemical
Description: GSK3β (human) is diluted to a 10× working stock in 50 mM Tris pH 7.5, 0.1 mM EGTA, 0.1 mM sodium vanadate, 0.1% β-mercaptoethanol, 1 mg/ml BSA. One unit equals the incorporation of 1 nmol of phosphate per minute phospho-glycogen synthase peptide 2 per minute.
In a final reaction volume of 25 μl, GSK3β (5-10 mU) is incubated with 8 mM MOPS 7.0, 0.2 mM EDTA, 20 μM […](p)EDEEE (phospho GS2 peptide), 10 mM MgAcetate and [γ-^33P-ATP] (specific activity approx 500 cpm/pmol, concentration as required). The reaction is initiated by the addition of Mg^2+[γ-^33P-ATP]. After incubation for 40 minutes at room temperature the reaction is stopped by the addition of 5 μl of a 3% phosphoric acid solution. 10 μl of the reaction is spotted onto a P30 filter mat and washed 3 times for 5 minutes in 50 mM phosphoric acid and once in methanol prior to drying and counting.

[5] = target: T2, AuroraB (Homo sapiens, UniProt Q96GD4); assay: Aurora B kinase assay (DELFIA); format: biochemical; conditions: 15 μM ATP
T2 construct: purchased ProQinase
Description: Aurora activity was determined using a Dissociative Enhanced Lanthanide Fluoro Immuno Assay (DELFIA) with a GSK3-derived biotinylated peptide. The amount of phosphorylated peptide produced is quantified by means of a phospho-specific primary antibody and europium-labelled anti-rabbit IgG antibody using time-resolved fluorescence at λex=337 nm, λem=620 nm.
Assay reactions are set up in 96 well plates in a total reaction volume of 25 μl with 5 nM AuroraB (ProQinase), 3 μM Biotin-[…], 15 μM ATP and various dilutions of compound in 25 mM TRIS pH 8.5, 0.1 mg/ml BSA, 0.025% Surfact-Amps 20, 5 mM MgCl2, 1 mM DTT, & 2.5% DMSO. The reaction is allowed to proceed for 90 minutes at room temperature before stopping with 100 μl STOP buffer containing 100 mM EDTA, 0.05% Surfact-amps20 (Pierce) and 1× Blocker™ BSA in TBS (Pierce).
The detection step was carried out as described for AuroraA.

T1 sequence (P06493 whole entry): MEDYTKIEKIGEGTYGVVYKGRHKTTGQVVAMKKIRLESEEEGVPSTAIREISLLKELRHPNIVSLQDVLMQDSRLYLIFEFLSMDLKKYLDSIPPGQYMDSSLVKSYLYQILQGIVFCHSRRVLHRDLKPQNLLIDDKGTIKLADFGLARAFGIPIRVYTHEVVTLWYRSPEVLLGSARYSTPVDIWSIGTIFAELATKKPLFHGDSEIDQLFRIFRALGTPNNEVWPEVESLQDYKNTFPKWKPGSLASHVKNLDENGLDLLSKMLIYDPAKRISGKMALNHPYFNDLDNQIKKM
T1 sequence (P14635 whole entry partner): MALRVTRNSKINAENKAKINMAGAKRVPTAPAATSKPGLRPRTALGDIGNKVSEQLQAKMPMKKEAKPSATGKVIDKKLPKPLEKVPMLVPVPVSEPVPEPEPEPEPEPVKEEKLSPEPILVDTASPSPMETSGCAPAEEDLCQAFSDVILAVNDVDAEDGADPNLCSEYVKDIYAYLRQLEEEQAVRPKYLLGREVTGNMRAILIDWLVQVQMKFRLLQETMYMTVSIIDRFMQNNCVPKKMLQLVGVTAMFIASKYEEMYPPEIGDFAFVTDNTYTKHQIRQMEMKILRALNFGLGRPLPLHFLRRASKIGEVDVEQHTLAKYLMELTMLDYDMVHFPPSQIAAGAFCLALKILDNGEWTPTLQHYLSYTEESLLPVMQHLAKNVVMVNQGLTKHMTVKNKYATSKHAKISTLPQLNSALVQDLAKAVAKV
T2 sequence (Q96GD4 whole entry): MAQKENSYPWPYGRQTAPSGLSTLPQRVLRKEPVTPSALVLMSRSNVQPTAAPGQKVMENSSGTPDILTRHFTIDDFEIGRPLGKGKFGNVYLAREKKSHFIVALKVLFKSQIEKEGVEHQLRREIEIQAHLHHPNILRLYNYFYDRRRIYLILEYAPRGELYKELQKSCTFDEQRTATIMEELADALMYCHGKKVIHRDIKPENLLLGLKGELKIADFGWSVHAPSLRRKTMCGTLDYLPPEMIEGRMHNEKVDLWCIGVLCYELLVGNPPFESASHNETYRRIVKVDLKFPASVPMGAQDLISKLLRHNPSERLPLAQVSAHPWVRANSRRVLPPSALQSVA
Sequence of GSK3β (human) (P49841 whole entry): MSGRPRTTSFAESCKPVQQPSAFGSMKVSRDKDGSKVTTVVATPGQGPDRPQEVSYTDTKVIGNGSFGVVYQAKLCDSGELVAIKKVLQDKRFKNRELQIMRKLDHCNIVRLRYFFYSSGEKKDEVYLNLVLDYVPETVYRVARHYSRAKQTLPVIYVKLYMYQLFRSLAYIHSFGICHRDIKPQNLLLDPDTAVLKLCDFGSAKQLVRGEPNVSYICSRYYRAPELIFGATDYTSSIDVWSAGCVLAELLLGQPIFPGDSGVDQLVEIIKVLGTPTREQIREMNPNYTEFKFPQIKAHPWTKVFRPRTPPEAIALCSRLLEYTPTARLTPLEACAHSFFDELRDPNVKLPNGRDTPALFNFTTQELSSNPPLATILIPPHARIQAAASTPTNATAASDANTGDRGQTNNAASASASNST

SMILES	IC50 ([1]; HCT-116, 72 h)	IC50 [2]	IC50 ([1]; HCT-116, 72 hours, Alamar Blue)	IC50 [3]	IC50 [4]	IC50 [5]
O=C(Nc1csnc1-c1nc2cc(CN3CCOCC3)ccc2[nH]1)c1c(F)cccc1F [Example 3, 2,6-difluoro-N-[3-(5-morpholin-4-ylmethyl-1H-benzoimidazol-2-yl)-isothiazol-4-yl]-benzamide]	< 15 µM	< 10 µM				
O=C(Nc1scnc1-c1nc2ccc(CN3CCOCC3)cc2[nH]1)c1c(F)cccc1F [Example 2, 2,6-difluoro-N-[4-(6-morpholin-4ylmethyl-1H-benzoimidazol-2-yl)-thiazol-5-yl]benzamide]		< 10 µM	< 1 µM	< 10 µM		
O=C(Nc1scnc1-c1nc2ccccc2[nH]1)c1c(F)cccc1F [Example 1, N-[4-(1H-benzoimidazol-2-yl)-thiazol-5-yl]-2,6-difluoro-benzamide]		< 10 µM	< 15 µM	< 10 µM	< 1 µM	< 0.1 µM
